A short description of series [1]: Percutaneous absorbability test: amount of antifungal agent in skin after ointment administration. To be noted: for Amount of antifungal agent in skin relative to antifungal agent alone (100), value in parentheses: same test, 2 hours after administration, *p<0.05, **p<0.01 Student t-test. Here is the method: Using clotrimazole, bifonazole, and econazole as antifungal agents, the percutaneous absorption promoting effects of reduced coenzyme Q10 and oxidized coenzyme Q10 to these antifungal agents were evaluated. The antifungal agents were separately dissolved in ethanol, mixed with heat-melted polyethylene glycol 1000 (PEG 1000) so as to have the final concentration of 1%, and prepared into ointments by allowing them to stand at room temperature. Each of heat-melted reduced coenzyme Q10 and oxidized coenzyme Q10 was mixed with the above-mentioned heat-melted PEG 1000 ointment containing each antifungal agent to prepare mixed ointments in which each of the final concentrations of coenzyme Q10s and antifungal agent is 1%.
A percutaneous absorbability test was carried out using fully fed male hairless rats (weight: 350 to 400 g). The hairless rats were mildly anesthetized with ether, and three administration parts of 3 cm square were set on the backs of each rat. To each part, 0.1 g of each ointment, i.e. the ointment containing an antifungal agent alone, the ointment containing an antifungal agent and reduced coenzyme Q10, and the ointment containing an antifungal agent and oxidized coenzyme Q10 was administered. After the lapse of 2 hours from the administration, the rat was euthanized, the administration parts were thoroughly washed, and skin was collected. The clotrimazole amounts in skin were determined by the sequential treatment subjecting the skin to homogenization, acetone extraction, concentration using a solid phase column, and high performance liquid chromatography. Each amount of bifonazole and econazole in the skin was determined by the sequential treatment subjecting the skin to homogenization, methanol extraction, and high performance liquid chromatography.
The values are the average value ±standard deviation (n=3).

For series [2] the following is noted: everyday administration, 1200 mg/kg/day for 52 weeks (Williams et al. 1999); cited from earlier work.
The nature of series [3]: Skin irritation test (Draize method). The format is in vivo, JW rabbits. Here is the method:
A skin irritation test was carried out using JW rabbits (17 to 18 weeks old). The backs of three rabbits were dehaired by an electric hair clipper, and four divisions of administration parts of 2.5×2.5 cm square were set on each rabbit back. 0.5 g of each specimen, i.e. oxidized coenzyme Q10 and reduced coenzyme Q10 (containing 2% of oxidized coenzyme Q10) was administered on the administration parts, and the parts were covered with gauzes for specimen's fixation. After the lapse of 4 hours, the specimens were removed. Further after the lapse of 1 hour, 24 hours, 48 hours, and 72 hours, formation of erythema, crusta and dropsy was determined by the method according to Draize J. H. et al. (Exp. Ther., 82, 377-390, 1944). That is, observations were made in view of formations of erythema, crusta and dropsy, they were scored for calculation of the primary irritation indexes, and the skin irritations were evaluated based on said primary irritation indexes. As a result, all scores were 0 (i.e. no erythema, crusta or dropsy) in observation items of oxidized coenzyme Q10 and reduced coenzyme Q10.

The structures appear in SMILES notation.

`c1ccc(-c2ccc(C(c3ccccc3)n3ccnc3)cc2)cc1` (stereo not drawn) [Bifonazole, bifonazole]: in series [1], the “Amount of antifungal agent in skin relative to antifungal agent alone (100), value in parentheses” value is reported as “(100)”.
For `Clc1ccccc1C(c1ccccc1)(c1ccccc1)n1ccnc1` [Clotrimazole, clotrimazole], in series [1], the “Amount of antifungal agent in skin relative to antifungal agent alone (100), value in parentheses” value is on record as “(100)”.
Regarding `Clc1ccc(COC(Cn2ccnc2)c2ccc(Cl)cc2Cl)cc1` (stereo not drawn) [Econazole, econazole], the “Amount of antifungal agent in skin relative to antifungal agent alone (100), value in parentheses” value in series [1] is listed as “(100)”.
With `COC1=C(OC)C(=O)C(C/C=C(\C)CC/C=C(\C)CC/C=C(\C)CC/C=C(\C)CC/C=C(\C)CC/C=C(\C)CC/C=C(\C)CC/C=C(\C)CC/C=C(\C)CCC=C(C)C)=C(C)C1=O` [coenzyme Q10], the “Toxic influence in chronic toxicity test” value in series [2] is on record as “completely no toxic influence had been observed”.
Regarding `COC1=C(OC)C(=O)C(C/C=C(\C)CC/C=C(\C)CC/C=C(\C)CC/C=C(\C)CC/C=C(\C)CC/C=C(\C)CC/C=C(\C)CC/C=C(\C)CC/C=C(\C)CCC=C(C)C)=C(C)C1=O` [oxidized coenzyme Q10], the “Increase of antifungal agent amount in skin” value in series [1] (rat, in vivo) is listed as 20-40%. In addition, in series [3] (rabbit, in vivo), the “Scores for erythema, crusta and dropsy (Draize)” value is given as 0; the “Skin irritation (based on primary irritation index)” value was “no skin irritation was observed”.
As to `COc1c(O)c(C)c(C/C=C(\C)CC/C=C(\C)CC/C=C(\C)CC/C=C(\C)CC/C=C(\C)CC/C=C(\C)CC/C=C(\C)CC/C=C(\C)CC/C=C(\C)CCC=C(C)C)c(O)c1OC` [reduced coenzyme Q10], in series [3] (0.5 g on 2.5×2.5 cm dehaired back skin for 4 hours, observed 1, 24, 48 and 72 hours after removal, three rabbits), the “Scores for erythema, crusta and dropsy (Draize)” value stood at 0. Also, the “Skin irritation (based on primary irritation index)” value in series [3] (0.5 g on dehaired back skin for 4 hours, observed up to 72 hours after removal) is recorded as “no skin irritation was observed”.
